In patent US4337260A, “Imidazopyridine-spiro-piperidine compounds” (Yoshitomi Pharmaceutical Industries, Ltd., priority 1981, dated 1982):

Tests used:
Cataleptogenic activity = conditions: rat, in vivo, ip; Wistar female rats; from total points of the maximum appearance of catatonia; read-out: Cataleptogenic Activity ED50
Procedure: (2) Cataleptogenic Activity
The test was performed according to the method described by W. Wirth et al. in "Archives Internationales de Pharmacodynamie et de Therapie", vol, 115, 1 ff (1958).
Groups of 5 Wistar female rats each were used. […] The ED50 was determined from total points of the maximum appearance of catatonia.

[1] = test system: apomorphine-induced vomiting; assay: Effect on apomorphine-induced vomiting; format: in vivo; conditions: Canis lupus familiaris, po, 2 hours prior to apomorphine hydrochloride (0.1 mg/kg, s.c.); beagle dogs; vomiting checked for 2 hours
Procedure: (1) Effect on apomorphine-induced vomiting
The test was performed according to the method described by M. Nakanishi et al. in "Arzneimittel-Forschung", vol. 21, 391 ff (1971).
Groups of 5-10 beagle dogs of both sexes each were used. The test compound was administered orally 2 hours prior to the treatment with apomorphine hydrochloride (0.1 mg/kg, s.c.). The incidence of vomiting was checked for 2 hours, and the ED50 (50% effective dose) was determined.

Row | Compound | TD50 (Cataleptogenic activity) | ED50 [1]
1 | CN(C)CCCN1c2ccccc2Sc2ccc(Cl)cc21 [Chlorpromazine, reference compound] | 12 mg/kg | 5.1 mg/kg
2 | Cl.Cl.O.O=C1N=C2CCCCN2C12CCN(CCCN1c3ccccc3CCc3ccccc31)CC2 [Test Compound C, 1'-[3-(10,11-dihydro-5H-dibenz[b,f]azepin-5-yl)propyl]-2,3,5,6,7,8-hexahydro-2-oxo-imidazo[1,2-a]pyridine-3-spiro-4'-piperidine dihydrochloride monohydrate] | > 50 mg/kg | 2 mg/kg
3 | Cl.Cl.O.O=C1NC2CCCCN2C12CCN(CCCN1c3ccccc3CCc3ccccc31)CC2 (centres unmarked) [Test Compound A, 1'-[3-(10,11-dihydro-5H-dibenzo[b,f]azepin-5-yl)propyl]-1,2,3,5,6,7,8,8a-octahydro-2-oxo-imidazo[1,2-a]pyridine-3-spiro-4'-piperidine dihydrochloride monohydrate] | > 50 mg/kg | 2.5 mg/kg
4 | Cl.Cl.O.O=C1NC2CCCCN2C12CCN(CCCN1c3ccccc3CCc3ccc(Cl)cc31)CC2 (centres unmarked) [Test Compound B, 1'-[3-(3-chloro-10,11-dihydro-5H-dibenz[b,f]azepin-5yl)propyl]-1,2,3,5,6,7,8,8a-octahydro-2-oxo-imidazo[1,2-a]pyridine-3spiro-4'-piperidine dihydrochloride monohydrate] | > 50 mg/kg | 0.5 mg/kg
